Several values for one entry are separate records, joined by “and”; a condition that tells them apart may be missing. Equal values may be shown once.
How the values were obtained:
[1] = Molar enthalpy of transition or fusion; conditions: Crystal; DSC

CNC(=O)c1cccnc1 [N-methylnicotinamide]
Conditions	vapor or sublimation pressure
329.17 K, Crystal, Calculated from knudsen effusion weight loss	0.000104 kPa and 0.000105 kPa
331.27 K, Crystal, Calculated from knudsen effusion weight loss	0.000132 kPa and 0.000134 kPa and 0.000131 kPa
333.15 K, Crystal, Calculated from knudsen effusion weight loss	0.000162 kPa and 0.00016 kPa and 0.000164 kPa
335.17 K, Crystal, Calculated from knudsen effusion weight loss	0.000211 kPa and 0.000209 kPa and 0.000206 kPa
337.27 K, Crystal, Calculated from knudsen effusion weight loss	0.000261 kPa and 0.000259 kPa
339.15 K, Crystal, Calculated from knudsen effusion weight loss	0.000328 kPa and 0.00032 kPa
341.16 K, Crystal, Calculated from knudsen effusion weight loss	0.000414 kPa and 0.000404 kPa
343.27 K, Crystal, Calculated from knudsen effusion weight loss	0.00051 kPa and 0.000505 kPa and 0.000513 kPa
345.13 K, Crystal, Calculated from knudsen effusion weight loss	0.000619 kPa and 0.000613 kPa and 0.000627 kPa
347.16 K, Crystal, Calculated from knudsen effusion weight loss	0.000784 kPa and 0.000776 kPa and 0.000771 kPa
347.78 K, Crystal, Closed cell (Static) method	0.00085 kPa
349.27 K, Crystal, Calculated from knudsen effusion weight loss	0.000971 kPa and 0.000964 kPa and 0.000957 kPa
349.78 K, Crystal, Closed cell (Static) method	0.00105 kPa
351.69 K, Crystal, Closed cell (Static) method	0.00127 kPa
353.72 K, Crystal, Closed cell (Static) method	0.00157 kPa
355.6 K, Crystal, Closed cell (Static) method	0.00191 kPa
357.66 K, Crystal, Closed cell (Static) method	0.00232 kPa
359.51 K, Crystal, Closed cell (Static) method	0.0028 kPa
361.62 K, Crystal, Closed cell (Static) method	0.00347 kPa
363.5 K, Crystal, Closed cell (Static) method	0.00416 kPa
365.47 K, Crystal, Closed cell (Static) method	0.00502 kPa
367.44 K, Crystal, Closed cell (Static) method	0.00604 kPa
369.43 K, Crystal, Closed cell (Static) method	0.00721 kPa
371.36 K, Crystal, Closed cell (Static) method	0.00857 kPa
373.27 K, Crystal, Closed cell (Static) method	0.01023 kPa
375.33 K, Metastable liquid, Closed cell (Static) method	0.01316 kPa
375.36 K, Crystal, Closed cell (Static) method	0.01234 kPa
377.25 K, Metastable liquid, Closed cell (Static) method	0.01508 kPa
377.39 K, Crystal, Closed cell (Static) method	0.01496 kPa
379.31 K, Metastable liquid, Closed cell (Static) method	0.01731 kPa
381.26 K, Closed cell (Static) method, Liquid	0.01991 kPa
383.29 K, Closed cell (Static) method, Liquid	0.0228 kPa
385.21 K, Closed cell (Static) method, Liquid	0.02592 kPa
387.24 K, Closed cell (Static) method, Liquid	0.02975 kPa
389.16 K, Closed cell (Static) method, Liquid	0.03359 kPa
391.17 K, Closed cell (Static) method, Liquid	0.03824 kPa
393.09 K, Closed cell (Static) method, Liquid	0.04305 kPa
395.12 K, Closed cell (Static) method, Liquid	0.04915 kPa
397.12 K, Closed cell (Static) method, Liquid	0.05526 kPa
399.02 K, Closed cell (Static) method, Liquid	0.06212 kPa
401.07 K, Closed cell (Static) method, Liquid	0.07023 kPa
403.01 K, Closed cell (Static) method, Liquid	0.07943 kPa
404.99 K, Closed cell (Static) method, Liquid	0.08886 kPa
406.95 K, Closed cell (Static) method, Liquid	0.09977 kPa
408.92 K, Closed cell (Static) method, Liquid	0.1117 kPa
410.86 K, Closed cell (Static) method, Liquid	0.1253 kPa
412.85 K, Closed cell (Static) method, Liquid	0.1398 kPa
414.81 K, Closed cell (Static) method, Liquid	0.1564 kPa
416.77 K, Closed cell (Static) method, Liquid	0.1735 kPa
418.72 K, Closed cell (Static) method, Liquid	0.194 kPa
420.68 K, Closed cell (Static) method, Liquid	0.2147 kPa
422.64 K, Closed cell (Static) method, Liquid	0.2384 kPa
424.61 K, Closed cell (Static) method, Liquid	0.2644 kPa
426.55 K, Closed cell (Static) method, Liquid	0.2952 kPa

Conditions	Normal melting temperature [°C]
Crystal, DTA	106.0

Conditions	Molar enthalpy of transition or fusion [kcal/mol]
[1]	5.26

Source: the NIST ThermoML archive (doi:10.1016/j.jct.2014.11.001)
